Source: ChEMBL document CHEMBL3885881, “DrugMatrix”

Organism: Rattus norvegicus
Assay: DrugMatrix - Regimen: Daily Repeat
Type: toxicity, organism-based, Sprague-Dawley
Set-up: regimen Daily Repeat, gender Male, age 6-8 weeks
Conditions: in vivo, po, route oral GAVAGE, […]; for ABSOLUTE BASOPHIL / ABSOLUTE EOSINOPHIL / ABSOLUTE LYMPHOCYTE / ABSOLUTE MONOCYTE / ABSOLUTE SEGMENTED NEUTROPHIL / BASOPHIL / EOSINOPHIL / ERYTHROCYTE COUNT / HEMATOCRIT / HEMOGLOBIN / LEUKOCYTE COUNT / LYMPHOCYTE / MEAN CORPUSCULAR HEMOGLOBIN / MEAN CORPUSCULAR HEMOGLOBIN CONCENTRATION / MEAN CORPUSCULAR VOLUME / MONOCYTE / NEUTROPHIL / NUCLEATED RED BLOOD CELLS / PLATELET COUNT: tissue Blood; for ALANINE AMINOTRANSFERASE / ALBUMIN / ALKALINE PHOSPHATASE / ASPARTATE AMINOTRANSFERASE / BLOOD UREA NITROGEN / CARBON DIOXIDE / CHLORIDE / CHOLESTEROL / CREATINE PHOSPHOKINASE / CREATININE / GLUCOSE / LACTATE DEHYDROGENASE / LIPASE / PHOSPHORUS / POTASSIUM / SODIUM / TOTAL BILIRUBIN / TOTAL PROTEIN / URIC ACID: tissue Plasma
[1] = 0 mg/kg, 72 h, dose level Control, time 3 day
[2] = 0 mg/kg, 120 h, dose level Control, time 5 day
[3] = 30 mg/kg, 72 h, dose level Low, time 3 day
[4] = 30 mg/kg, 120 h, dose level Low, time 5 day

Question: What does the source list for `CS(=O)(=O)Nc1ccc([N+](=O)[O-])cc1Oc1ccccc1` [NIMESULIDE]?
Answer: ABSOLUTE BASOPHIL [1]: 0 CELLS/uL; ABSOLUTE EOSINOPHIL [1]: 0 CELLS/uL; ABSOLUTE LYMPHOCYTE [1]: 7601 CELLS/uL; ABSOLUTE MONOCYTE [1]: 354.33 CELLS/uL; ABSOLUTE SEGMENTED NEUTROPHIL [1]: 744.67 CELLS/uL; BASOPHIL [1]: 0%; EOSINOPHIL [1]: 0%; ERYTHROCYTE COUNT [1]: 5.03 x10E6/uL; HEMATOCRIT [1]: 33.7%; HEMOGLOBIN [1]: 13.43 G/DL; LEUKOCYTE COUNT [1]: 8.7 x10E3/uL; LYMPHOCYTE [1]: 86.33%; MEAN CORPUSCULAR HEMOGLOBIN [1]: 26.7 pg; MEAN CORPUSCULAR HEMOGLOBIN CONCENTRATION [1]: 39.83 G/DL; MEAN CORPUSCULAR VOLUME [1]: 67 fL; MONOCYTE [1]: 4.67%; NEUTROPHIL [1]: 9%; NUCLEATED RED BLOOD CELLS [1]: 0 /100WBC; PLATELET COUNT [1]: 1151 x10E3/uL; ALANINE AMINOTRANSFERASE [1]: 97.67 u/L; ALBUMIN [1]: 4.07 G/DL; ALKALINE PHOSPHATASE [1]: 607.67 u/L; ASPARTATE AMINOTRANSFERASE [1]: 101 u/L; BLOOD UREA NITROGEN [1]: 13.33 mg/dL; CARBON DIOXIDE [1]: 36 mmol/L; CHLORIDE [1]: 99.67 MEQ/L; CHOLESTEROL [1]: 75.67 mg/dL; CREATINE PHOSPHOKINASE [1]: 279.67 u/L; CREATININE [1]: 0.16 mg/dL; GLUCOSE [1]: 164 mg/dL; LACTATE DEHYDROGENASE [1]: 115 u/L; LIPASE [1]: 12.67 u/L; PHOSPHORUS [1]: 8.77 mg/dL; POTASSIUM [1]: 5.79 MEQ/L; SODIUM [1]: 142.83 MEQ/L; TOTAL BILIRUBIN [1]: 0.27 mg/dL; TOTAL PROTEIN [1]: 5.8 G/DL; URIC ACID [1]: 0.67 mg/dL; ABSOLUTE BASOPHIL [2]: 0 CELLS/uL; ABSOLUTE EOSINOPHIL [2]: 0 CELLS/uL; ABSOLUTE LYMPHOCYTE [2]: 4426.33 CELLS/uL; ABSOLUTE MONOCYTE [2]: 102.67 CELLS/uL; ABSOLUTE SEGMENTED NEUTROPHIL [2]: 337.67 CELLS/uL; BASOPHIL [2]: 0%; EOSINOPHIL [2]: 0%; ERYTHROCYTE COUNT [2]: 5.31 x10E6/uL; HEMATOCRIT [2]: 32.5%; HEMOGLOBIN [2]: 13.17 G/DL; LEUKOCYTE COUNT [2]: 4.87 x10E3/uL; LYMPHOCYTE [2]: 90.33%; MEAN CORPUSCULAR HEMOGLOBIN [2]: 24.93 pg; MEAN CORPUSCULAR HEMOGLOBIN CONCENTRATION [2]: 40.67 G/DL; MEAN CORPUSCULAR VOLUME [2]: 61.33 fL; MONOCYTE [2]: 2.33%; NEUTROPHIL [2]: 7.33%; NUCLEATED RED BLOOD CELLS [2]: 0.33 /100WBC; PLATELET COUNT [2]: 848.33 x10E3/uL; ALANINE AMINOTRANSFERASE [2]: 59.67 u/L; ALBUMIN [2]: 3.87 G/DL; ALKALINE PHOSPHATASE [2]: 452 u/L; ASPARTATE AMINOTRANSFERASE [2]: 81.33 u/L; BLOOD UREA NITROGEN [2]: 13.67 mg/dL; CARBON DIOXIDE [2]: 26.33 mmol/L; CHLORIDE [2]: 103.67 MEQ/L; CHOLESTEROL [2]: 65.67 mg/dL; CREATINE PHOSPHOKINASE [2]: 355.33 u/L; CREATININE [2]: 0.14 mg/dL; GLUCOSE [2]: 171.33 mg/dL; LACTATE DEHYDROGENASE [2]: 118 u/L; LIPASE [2]: 11.33 u/L; PHOSPHORUS [2]: 11.13 mg/dL; POTASSIUM [2]: 5.18 MEQ/L; SODIUM [2]: 143.17 MEQ/L; TOTAL BILIRUBIN [2]: 0.2 mg/dL; TOTAL PROTEIN [2]: 5.87 G/DL; URIC ACID [2]: 0.63 mg/dL; ABSOLUTE BASOPHIL [3]: 0 CELLS/uL; ABSOLUTE EOSINOPHIL [3]: 25.33 CELLS/uL; ABSOLUTE LYMPHOCYTE [3]: 7491.33 CELLS/uL; ABSOLUTE MONOCYTE [3]: 125 CELLS/uL; ABSOLUTE SEGMENTED NEUTROPHIL [3]: 858.33 CELLS/uL; BASOPHIL [3]: 0%; EOSINOPHIL [3]: 0.33%; ERYTHROCYTE COUNT [3]: 5.1 x10E6/uL; HEMATOCRIT [3]: 33.1%; HEMOGLOBIN [3]: 12.87 G/DL; LEUKOCYTE COUNT [3]: 8.5 x10E3/uL; LYMPHOCYTE [3]: 88%; MEAN CORPUSCULAR HEMOGLOBIN [3]: 25.23 pg; MEAN CORPUSCULAR HEMOGLOBIN CONCENTRATION [3]: 38.87 G/DL; MEAN CORPUSCULAR VOLUME [3]: 64.93 fL; MONOCYTE [3]: 1.33%; NEUTROPHIL [3]: 10.33%; NUCLEATED RED BLOOD CELLS [3]: 0 /100WBC; PLATELET COUNT [3]: 1037.67 x10E3/uL; ALANINE AMINOTRANSFERASE [3]: 125.67 u/L; ALBUMIN [3]: 4.17 G/DL; ALKALINE PHOSPHATASE [3]: 434 u/L; ASPARTATE AMINOTRANSFERASE [3]: 117 u/L; BLOOD UREA NITROGEN [3]: 11 mg/dL; CARBON DIOXIDE [3]: 35 mmol/L; CHLORIDE [3]: 106.33 MEQ/L; CHOLESTEROL [3]: 78 mg/dL; CREATINE PHOSPHOKINASE [3]: 456.33 u/L; CREATININE [3]: 0.28 mg/dL; GLUCOSE [3]: 158.67 mg/dL; LACTATE DEHYDROGENASE [3]: 119.33 u/L; LIPASE [3]: 11 u/L; PHOSPHORUS [3]: 8.8 mg/dL; POTASSIUM [3]: 5.65 MEQ/L; SODIUM [3]: 146.27 MEQ/L; TOTAL BILIRUBIN [3]: 0.13 mg/dL; TOTAL PROTEIN [3]: 5.7 G/DL; URIC ACID [3]: 0.63 mg/dL; ABSOLUTE BASOPHIL [4]: 0 CELLS/uL; ABSOLUTE EOSINOPHIL [4]: 83.33 CELLS/uL; ABSOLUTE LYMPHOCYTE [4]: 10811.33 CELLS/uL; ABSOLUTE MONOCYTE [4]: 335.67 CELLS/uL; ABSOLUTE SEGMENTED NEUTROPHIL [4]: 1536.33 CELLS/uL; BASOPHIL [4]: 0%; EOSINOPHIL [4]: 0.33%; ERYTHROCYTE COUNT [4]: 5.57 x10E6/uL; HEMATOCRIT [4]: 36.37%; HEMOGLOBIN [4]: 13.93 G/DL; LEUKOCYTE COUNT [4]: 12.77 x10E3/uL; LYMPHOCYTE [4]: 87.33%; MEAN CORPUSCULAR HEMOGLOBIN [4]: 25 pg; MEAN CORPUSCULAR HEMOGLOBIN CONCENTRATION [4]: 38.33 G/DL; MEAN CORPUSCULAR VOLUME [4]: 65.23 fL; MONOCYTE [4]: 2.33%; NEUTROPHIL [4]: 10%; NUCLEATED RED BLOOD CELLS [4]: 0 /100WBC; PLATELET COUNT [4]: 1176 x10E3/uL; ALANINE AMINOTRANSFERASE [4]: 52 u/L; ALBUMIN [4]: 4.27 G/DL; ALKALINE PHOSPHATASE [4]: 326 u/L; ASPARTATE AMINOTRANSFERASE [4]: 65.67 u/L; BLOOD UREA NITROGEN [4]: 16 mg/dL; CARBON DIOXIDE [4]: 24.67 mmol/L; CHLORIDE [4]: 108.33 MEQ/L; CHOLESTEROL [4]: 74.67 mg/dL; CREATINE PHOSPHOKINASE [4]: 187 u/L; CREATININE [4]: 0.16 mg/dL; GLUCOSE [4]: 176.33 mg/dL; LACTATE DEHYDROGENASE [4]: 75.67 u/L; LIPASE [4]: 10.33 u/L; PHOSPHORUS [4]: 10.53 mg/dL; POTASSIUM [4]: 4.45 MEQ/L; SODIUM [4]: 149.7 MEQ/L; TOTAL BILIRUBIN [4]: 0.1 mg/dL; TOTAL PROTEIN [4]: 6.33 G/DL; URIC ACID [4]: 0.6 mg/dL
